Data: article PMC6150311, “Proline-Based Carbamates as Cholinesterase Inhibitors” (Molecules : A Journal of Synthetic Chemistry and Natural …, 2017)

Legend:
[1] = tested on: human monocytic leukemia THP-1 cells; assay: In vitro cytotoxicity assay (WST-1); format: cell-based; settings: 24 h, highest tested concentration 30 μM, read-out: tox. IC50
Protocol: The cytotoxicity was evaluated as the IC50 value (compound concentration causing 50% inhibition of cell population proliferation) (see Table 1). […] Based on these observations, it can be concluded that the discussed compounds can be considered as non-toxic agents for subsequent design of novel drugs.
Human monocytic leukemia THP-1 cells were used for in vitro toxicity assay. Cells were obtained from the European Collection of Cell Cultures (ECACC, Salisbury, UK) and routinely cultured in RPMI 1640 (Lonza, Verviers, Belgium) medium supplemented with 10% fetal bovine serum (FBS, Sigma), 2% L-glutamine, 1% penicillin and streptomycin (Lonza, Verviers, Belgium) at 37 °C with 5% CO2. Cells were passaged at approximately one week intervals. The cytotoxicity of the compounds was determined using a WST-1 assay kit (Roche Diagnostics, Mannheim, Germany) according to the manufacturer’s instructions. The tested compounds were dissolved in DMSO and added in five increasing concentrations (0.37, 1.1, 3.3, 10, and 30 μM) to the cell suspension in the culture RPMI 1640 medium. The maximum concentration of DMSO (Sigma) in the assays never exceeded 0.1%. Subsequently, the cells were incubated for 24 h at 37 °C with 5% CO2. For WST-1 assays, cells were seeded into 96-well plates (5 × 10^4 cells/well in 100 μL culture medium) in triplicate in serum-free RPMI 1640 medium, and measurements were taken 24 h after the treatment with the compounds. The median inhibition concentration values, IC50, were deduced through the production of a dose-response curve. All data were evaluated using the GraphPad Prism 5.00 software (GraphPad Software, San Diego, CA, USA).

[2] = biological target: T1, BChE from equine serum (Equus caballus, UniProt P81908); assay: In vitro BChE inhibition, modified Ellman's method; format: biochemical; settings: for SI (index selectivity) = IC50 (AChE)/IC50 (BChE): ratio AChE/BChE, higher = more selective to BChE
T1 construct: BChE (from equine serum); purchased Sigma, St. Louis, MO, USA; host or cells: equine serum
Protocol: (§1) The ability of all prepared compounds to inhibit AChE from electric eel (Electrophorus electricus) and BChE from equine serum (both purchased from Sigma, St. Louis, MO, USA) was determined in vitro using a modified Ellman’s method. […] The Ellman’s method is widely used for measuring cholinesterase activity and the effectivity of ChEIs. It is a simple, rapid and direct method to determine SH and –S–S– groups content in proteins. Cholinesterase activity is measured indirectly by quantifying the concentration of 5-thio-2-nitrobenzoic acid (TNB) ion formed in the reaction between disulfide reagent 5,5′-dithiobis-2-nitrobenzoic acid (DTNB) and thiocholine, a product of substrate (i.e., acetylthiocholine, ATCh) hydrolysis catalyzed by cholinesterase.
(§2) All tested compounds were dissolved in DMSO (concentration 0.01 M) and diluted in demineralized water (concentrations 0.001 M and 0.0001 M). The ability of tested compounds to inhibit AChE (from electric eel) and BChE (from equine serum) was determined using the modified Ellman’s method at 25 °C in the presence of phosphate buffered saline (PBS, 0.1 M, pH 7.4) in a glass cuvette with 1 cm optical path. The enzyme activity in total reaction mixture (2 mL) was 0.2 U/mL, the concentration of substrate ATCh 40 μM and the concentration of DTNB 0.1 mM for all reactions. The IC50 value was obtained from the dependence of v0/vi on the concentration of the tested compound (inhibitor), where v0 is the reaction rate of uninhibited reaction and vi is the reaction rate of inhibited reaction (for the given concentration of the inhibitor). First, v0 was determined. Into the cuvette PBS (0.1 M, pH 7.4), DTNB and ATCh were placed. The enzymatic reaction was started by adding the enzyme. […] The measurement was performed in triplicate at least, and average v0 was determined. Then, vi (for the given concentration of the inhibitor) was determined. Into the cuvette DTNB, ATCh, a chosen volume of the suitably diluted inhibitor (to achieve the required concentration of the inhibitor in the total reaction mixture) and a certain volume of PBS (to achieve the total volume of the reaction mixture 2 mL after adding the enzyme) were placed. The enzymatic reaction was started by adding the enzyme. […] For determination of IC50 values, twelve different concentrations of inhibitor were used and each measurement was performed in triplicate at least.

[3] = biological target: T2, AChE from electric eel (Electrophorus electricus) (Electrophorus electricus, UniProt O42275); assay: In vitro AChE inhibition, modified Ellman's method; format: biochemical
T2 construct: AChE (from electric eel) and BChE (from equine serum); purchased Sigma, St. Louis, MO, USA; host or cells: electric eel (animal source)
Protocol: as §1, §2

T1 sequence (P81908 whole entry): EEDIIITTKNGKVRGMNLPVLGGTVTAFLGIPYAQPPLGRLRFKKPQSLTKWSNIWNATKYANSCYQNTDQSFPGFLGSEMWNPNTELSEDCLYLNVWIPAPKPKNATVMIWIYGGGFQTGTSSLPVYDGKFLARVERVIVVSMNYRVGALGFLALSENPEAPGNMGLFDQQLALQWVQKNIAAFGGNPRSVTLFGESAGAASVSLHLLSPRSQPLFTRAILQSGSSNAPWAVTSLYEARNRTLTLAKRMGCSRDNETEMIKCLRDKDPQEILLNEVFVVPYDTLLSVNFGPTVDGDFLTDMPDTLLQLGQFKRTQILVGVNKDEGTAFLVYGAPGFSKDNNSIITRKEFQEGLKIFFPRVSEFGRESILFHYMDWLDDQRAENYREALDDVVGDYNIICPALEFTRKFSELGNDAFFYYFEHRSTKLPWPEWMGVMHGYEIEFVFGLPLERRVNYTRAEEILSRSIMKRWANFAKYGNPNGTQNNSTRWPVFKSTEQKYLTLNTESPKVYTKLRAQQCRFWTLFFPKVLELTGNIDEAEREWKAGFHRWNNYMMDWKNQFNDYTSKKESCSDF
T2 sequence (O42275 24-633): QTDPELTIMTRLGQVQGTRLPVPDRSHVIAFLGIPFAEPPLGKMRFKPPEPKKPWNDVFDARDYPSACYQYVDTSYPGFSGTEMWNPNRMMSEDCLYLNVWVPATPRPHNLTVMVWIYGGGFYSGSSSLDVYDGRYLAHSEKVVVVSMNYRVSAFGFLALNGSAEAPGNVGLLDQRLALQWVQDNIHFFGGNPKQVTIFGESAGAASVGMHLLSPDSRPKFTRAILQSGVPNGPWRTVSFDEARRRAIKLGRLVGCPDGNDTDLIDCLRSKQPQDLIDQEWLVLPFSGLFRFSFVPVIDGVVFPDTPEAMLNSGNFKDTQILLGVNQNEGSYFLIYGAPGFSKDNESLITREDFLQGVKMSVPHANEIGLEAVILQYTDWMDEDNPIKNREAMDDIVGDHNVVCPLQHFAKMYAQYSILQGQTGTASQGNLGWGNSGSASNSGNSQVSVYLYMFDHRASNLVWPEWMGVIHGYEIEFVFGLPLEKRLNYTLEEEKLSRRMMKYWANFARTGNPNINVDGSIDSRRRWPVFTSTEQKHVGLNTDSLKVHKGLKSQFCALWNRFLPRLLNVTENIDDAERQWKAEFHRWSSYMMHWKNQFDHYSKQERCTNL

O=C(Nc1ccccc1O)[C@@H]1CCCN1C(=O)OCc1ccccc1 [Compound 9a, Benzyl (2S)-2-[(2-hydroxyphenyl)carbamoyl]pyrrolidine-1-carboxylate] was tested, and the IC50 [1] was over 30 µM, the IC50 [2] was 42 ± 1.26 µM and the “selectivity to BChE (in words)” value ([2]; BChE vs AChE) was “greater selectivity to BChE”. The “SI (index selectivity) = IC50 (AChE)/IC50 (BChE)” value (“SI (index selectivity) = IC50” for short) [2] was 3.65 and the IC50 [3] was 153 ± 9.97 µM.
O=C(Nc1cccc(O)c1)[C@@H]1CCCN1C(=O)OCc1ccccc1 [Compound 9b, Benzyl (2S)-2-[(3-hydroxyphenyl)carbamoyl]pyrrolidine-1-carboxylate] was tested, and the IC50 [1] was over 30 µM, the IC50 [2] was 86.22 ± 0.4 µM and the “SI (index selectivity) = IC50” value [2] was 1.41. It also gave an IC50 [3] of 122 ± 1.38 µM.
O=C(Nc1ccc(O)cc1)[C@@H]1CCCN1C(=O)OCc1ccccc1 [Compound 9c, Benzyl (2S)-2-[(4-hydroxyphenyl)carbamoyl]pyrrolidine-1-carboxylate] was tested, and the IC50 [1] was over 30 µM, the IC50 [2] was 133 ± 0.39 µM and the “SI (index selectivity) = IC50” value [2] was 0.68. For the same molecule, the IC50 [3] was 91.08 ± 0.27 µM.
